Assay results as given in ChEMBL document CHEMBL1134705, “Synthesis and antimicrobial activity of new 3 alpha-hydroxy-23,24-bisnorcholane polyamine carbamates” (2001).
In brackets after ≈: the same amount, converted by molar mass.

Columns and labels:
[1] = test system: Escherichia coli; assay: Evaluated for its antimicrobial activity against Escherichia coli (25922); type: functional
[2] = test system: Salmonella typhimurium; assay: Evaluated for its antimicrobial activity against Salmonella Typhimurium (14028); type: functional, Salmonella enterica subsp. enterica serovar Typhimurium; details: Salmonella enterica
[3] = test system: Serratia marcescens; assay: Evaluated for its antimicrobial activity against Serratia marcescens (27117); type: functional
[4] = test system: Proteus mirabilis; assay: Evaluated for its antimicrobial activity against Proteus mirabilis (25933); type: functional
[5] = Evaluated for its in vitro antimicrobial activity against Staphylococcus equisimilis (6580C); type: functional
[6] = In vitro minimal hemolytic activity was determined; type: functional
[7] = test system: Pseudomonas aeruginosa; assay: Evaluated for its antimicrobial activity against Pseudomonas aeruginosa (27853); type: functional
[8] = test system: Bacillus subtilis; assay: Evaluated for its in vitro antimicrobial activity against Bacillus subtilis (6633); type: functional
[9] = test system: Klebsiella pneumoniae; assay: Evaluated for its antimicrobial activity against Klebsiella pneumoniae (10031); type: functional
[10] = test system: Staphylococcus aureus; assay: Evaluated for its in vitro antimicrobial activity against Staphylococcus aureus (6538p); type: functional
[11] = test system: Micrococcus luteus; assay: Evaluated for its antimicrobial activity against Micrococcus luteus (9341); type: functional

MIC [1]	MIC [2]	MIC [3]	MIC [4]	MIC [5]	MIC [7]	MIC [8]	MIC [9]	MIC [10]	MIC [11]	SMILES	MHC [6]
50 mg/L (≈ 95.8 µM)	> 100 mg/L	> 100 mg/L	> 100 mg/L	12.5 mg/L (≈ 24 µM)	25 mg/L (≈ 47.9 µM)	6.25 mg/L (≈ 12 µM)	> 100 mg/L	3.13 mg/L (≈ 6 µM)	3.13 mg/L (≈ 6 µM)	C[C@H](COC(=O)NCCCNCCCCN)[C@H]1CC[C@H]2[C@@H]3[C@H](O)C[C@H]4C[C@H](O)CC[C@]4(C)[C@H]3CC[C@]12C	100 µg/mL
6.25 mg/L	> 100 mg/L	> 100 mg/L	> 100 mg/L	1.56 mg/L	25 mg/L	1.56 mg/L	6.25 mg/L	1.56 mg/L	3.13 mg/L	C[C@H](COC(=O)NCCCNCCCCNCCC[N+](C)(C)C)[C@H]1CC[C@H]2[C@@H]3CC[C@H]4C[C@H](O)CC[C@]4(C)[C@H]3CC[C@]12C	25 µg/mL
25 mg/L (≈ 49.4 µM)	12.5 mg/L (≈ 24.7 µM)	> 100 mg/L	> 100 mg/L	3.13 mg/L (≈ 6.19 µM)	> 100 mg/L	3.13 mg/L (≈ 6.19 µM)	3.13 mg/L (≈ 6.19 µM)	0.78 mg/L (≈ 1.54 µM)	1.56 mg/L (≈ 3.08 µM)	C[C@H](COC(=O)NCCCNCCCCN)[C@H]1CC[C@H]2[C@@H]3CC[C@@H]4C[C@H](O)CC[C@]4(C)[C@H]3CC[C@]12C	25 µg/mL
> 100 mg/L	> 100 mg/L	> 100 mg/L	> 100 mg/L	3.13 mg/L (≈ 4.98 µM)	> 100 mg/L	3.13 mg/L (≈ 4.98 µM)	12.5 mg/L (≈ 19.9 µM)	6.25 mg/L (≈ 9.95 µM)	3.13 mg/L (≈ 4.98 µM)	CC(C)[C@@H](CC[C@@H](C)[C@H]1CC[C@H]2[C@@H]3[C@H](O)C[C@H]4C[C@@H](NCCCNCCCCN)CC[C@]4(C)[C@H]3CC[C@]12C)OS(=O)(=O)O [SQUALAMINE]	–
> 100 mg/L	12.5 mg/L (≈ 24.7 µM)	> 100 mg/L	> 100 mg/L	12.5 mg/L (≈ 24.7 µM)	> 100 mg/L	6.25 mg/L (≈ 12.4 µM)	1.56 mg/L (≈ 3.08 µM)	3.13 mg/L (≈ 6.19 µM)	3.13 mg/L (≈ 6.19 µM)	C[C@H](COC(=O)NCCCNCCCCN)[C@H]1CC[C@H]2[C@@H]3CC[C@H]4C[C@H](O)CC[C@]4(C)[C@H]3CC[C@]12C	25 µg/mL
12.5 mg/L	12.5 mg/L	> 100 mg/L	> 100 mg/L	1.56 mg/L	3.13 mg/L	1.56 mg/L	> 100 mg/L	0.78 mg/L	1.56 mg/L	C[C@H](COC(=O)NCCCNCCCCNCCC[N+](C)(C)C)[C@H]1CC[C@H]2[C@@H]3CC[C@@H]4C[C@H](O)CC[C@]4(C)[C@H]3CC[C@]12C	25 µg/mL
12.5 mg/L (≈ 23.9 µM)	> 100 mg/L	> 100 mg/L	> 100 mg/L	6.25 mg/L (≈ 11.9 µM)	12.5 mg/L (≈ 23.9 µM)	3.13 mg/L (≈ 5.98 µM)	12.5 mg/L (≈ 23.9 µM)	3.13 mg/L (≈ 5.98 µM)	3.13 mg/L (≈ 5.98 µM)	C[C@H](COC(=O)NCCCNCCCCN)[C@H]1CC[C@H]2[C@@H]3[C@H](F)C[C@H]4C[C@H](O)CC[C@]4(C)[C@H]3CC[C@]12C	50 µg/mL
